Results as given in patent US20120214862A1, “MODULATION OF FACTOR 7 EXPRESSION” (ISIS Pharmaceuticals, Inc., priority 2009, published 2012).
In the oligonucleotide strings, read from the 5' end, every base follows the letter of its sugar. An asterisk marks phosphorothioate; unmarked linkages are phosphodiester. Other units and linkages are bracketed, terminal groups are in braces. A string of capitals states the bases alone. e = 2'-O-(2-methoxyethyl) (MOE); [5mC] = 5-methylcytosine; d = 2'-deoxy (DNA)

Tests used:
Type in all cases: cell-based
human Factor 7 mRNA [1] = experiment: Antisense inhibition of human Factor 7 mRNA in HepB3 cells, lipofectin, 50 nM, real-time RT-PCR; conditions: HepB3 cells
Outline: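 Seeding density was 4,000 cells per well. Following roughly 24 hours of oligonucleotide treatment, RNA was extracted and Factor 7 message quantified using the RTS 2927 primer probe set. Levels were corrected for RIBOGREEN® total RNA and expressed against untreated controls.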

human Factor 7 mRNA [2] = experiment: Dose-dependent antisense inhibition of human Factor 7 in HepB3 cells, transfection with lipofectin; conditions: lipofectin, HepB3 cells, 16 hours
Description: Cells were plated at a density of 4,000 cells per well and treated with lipofectin reagent with 3.125 nM, 6.25 nM, 12.5 nM, 25 nM, 50 nM, and 100 nM concentrations of antisense oligonucleotide, as indicated in Table 3. After a treatment period of approximately 16 hours, RNA was isolated from the cells and Factor 7 mRNA levels were measured by real-time RT-PCR, as described herein. Human Factor 7 primer probe set RTS 2927 (forward sequence: […], incorporated herein as SEQ ID NO: 164; reverse sequence: […], incorporated herein as SEQ ID NO: 165; probe sequence: TGGGTGGTCTCCGCGGCCX, incorporated herein as SEQ ID NO: 166) was used to measure mRNA levels. Factor 7 mRNA levels were adjusted according to total RNA content as measured by RIBOGREEN®. Results are presented as percent inhibition of Factor 7, relative to untreated control cells.
Cells were plated at a density of 4,000 cells per well and transfected using lipofectin reagent with 6.25 nM, 12.5 nM, 25.0 nM, 50.0 nM, and 100.0 nM concentrations of antisense oligonucleotide, as indicated in Table 7. After a treatment period of approximately 16 hours, RNA was isolated from the cells and Factor 7 mRNA levels were measured by real-time RT-PCR, as described herein. Human Factor 7 primer probe set RTS 2927 was used to measure mRNA levels. Factor 7 mRNA levels were adjusted according to total RNA content as measured by RIBOGREEN®. Results are presented as percent inhibition of Factor 7, relative to untreated control cells.
(§1) Cells were plated at a density of 4,000 cells per well and transfected using lipofectin reagent with 3.125 nM, 6.25 nM, 12.5 nM, 25 nM, 50 nM, and 100 nM concentrations of antisense oligonucleotide, as specified in Table 14. After a treatment period of approximately 16 hours, RNA was isolated from the cells and Factor 7 mRNA levels were measured by quantitative real-time PCR. Human Factor 7 primer probe set RTS 2927 was used to measure mRNA levels. Factor 7 mRNA levels were adjusted according to total RNA content, as measured by RIBOGREEN®. Results are presented as percent inhibition of Factor 7, relative to untreated control cells.

human Factor 7 mRNA [3] = experiment: Dose-dependent antisense inhibition of human Factor 7 in HepB3 cells, transfection with electroporation
Description: as §1, with “The gapmers were also transfected via electroporation and their dose-dependent inhibition of human Factor 7 mRNA was measured. Cells” for “Cells”, “20,000” for “4,000”, “via electroporation” for “using lipofectin reagent”, “μM,” for “nM,”, “μM” for “nM”, “15.” for “14.”
Cells were plated at a density of 20,000 cells per well and transfected via electroporation with 3.125 μM, 6.25 μM, 12.5 μM, 25 μM, 50 μM, and 100 μM concentrations of antisense oligonucleotide, as specified in Table 16. After a treatment period of approximately 16 hours, RNA was isolated from the cells and human Factor 7 mRNA levels were measured by quantitative real-time PCR. Human Factor 7 primer probe set RTS 2927 was used to measure mRNA levels. Factor 7 mRNA levels were adjusted according to total RNA content, as measured by RIBOGREEN®. Results are presented as percent inhibition of Factor 7, relative to untreated control cells.

[4] = 3.125 μM, 16 hours (Example 7, Table 15)
[5] = 6.25 μM, 16 hours (Example 7, Table 15)
[6] = 12.5 μM, 16 hours (Example 7, Table 15)
[7] = 25 μM, 16 hours (Example 7, Table 15)
[8] = 50 μM, 16 hours (Example 7, Table 15)
[9] = 100 μM, 16 hours (Example 7, Table 15)
[10] = gapmers (5-10-5, 3-14-3, 2-13-5 MOE) targeted to nucleobases 4868 to 4899 of SEQ ID NO: 1
[11] = 3.125 μM, 16 hours (Example 8, Table 16)
[12] = 6.25 μM, 16 hours (Example 8, Table 16)
[13] = 12.5 μM, 16 hours (Example 8, Table 16)
[14] = 25 μM, 16 hours (Example 8, Table 16)
[15] = 50 μM, 16 hours (Example 8, Table 16)
[16] = 100 μM, 16 hours (Example 8, Table 16)

Row | Substance | percent inhibition of Factor 7 mRNA, relative to untreated control cells (human Factor 7 mRNA [2]; 3.125 nM) | percent inhibition of Factor 7 mRNA, relative to untreated control cells (human Factor 7 mRNA [2]; 12.5 nM) | percent inhibition of Factor 7 mRNA, relative to untreated control cells (human Factor 7 mRNA [2]; 25 nM) | percent inhibition of Factor 7 mRNA, relative to untreated control cells (human Factor 7 mRNA [2]; 50 nM) | percent inhibition of Factor 7 mRNA, relative to untreated control cells (human Factor 7 mRNA [2]; 100 nM) | percent inhibition of Factor 7 mRNA, relative to untreated control cells (human Factor 7 mRNA [2]) | percent inhibition of Factor 7 mRNA, relative to untreated control cells (human Factor 7 mRNA [3]; [4]) | percent inhibition of Factor 7 mRNA, relative to untreated control cells (human Factor 7 mRNA [3]; [5]) | percent inhibition of Factor 7 mRNA, relative to untreated control cells (human Factor 7 mRNA [3]; [6]) | percent inhibition of Factor 7 mRNA, relative to untreated control cells (human Factor 7 mRNA [3]; [7]) | percent inhibition of Factor 7 mRNA, relative to untreated control cells (human Factor 7 mRNA [3]; [8]) | percent inhibition of Factor 7 mRNA, relative to untreated control cells (human Factor 7 mRNA [3]; [9]) | % Inhibition of human Factor 7 mRNA levels (human Factor 7 mRNA [1]; [10]) | percent inhibition of Factor 7 mRNA, relative to untreated control cells (human Factor 7 mRNA [3]; [11]) | percent inhibition of Factor 7 mRNA, relative to untreated control cells (human Factor 7 mRNA [3]; [12]) | percent inhibition of Factor 7 mRNA, relative to untreated control cells (human Factor 7 mRNA [3]; [13]) | percent inhibition of Factor 7 mRNA, relative to untreated control cells (human Factor 7 mRNA [3]; [14]) | percent inhibition of Factor 7 mRNA, relative to untreated control cells (human Factor 7 mRNA [3]; [15]) | percent inhibition of Factor 7 mRNA, relative to untreated control cells (human Factor 7 mRNA [3]; [16]) | further results
1 | 422152 (antisense eA*eT*eG*d[5mC]*dA*dT*dG*dG*dT*dG*dA*dT*dG*d[5mC]*dT*dT*d[5mC]*eT*eG*eA) [compound 422152] | 18% | 47% | 67% | 83% | 89% | 29% | 14% | 22% | 32% | 44% | 65% | 76% |  |  |  |  |  |  |  | % Inhibition of human Factor 7 mRNA levels (human Factor 7 mRNA [1]; gapmers targeted to nucleobases 15188 to 15211 of SEQ ID NO: 1 (Table 13)): 74%
2 | 422292 (antisense eG*eT*dT*d[5mC]*dT*dG*d[5mC]*dA*dG*dG*dA*dG*d[5mC]*dG*dG*e[5mC]*e[5mC]*eT*eA*eA) [compound 422292] | 13% | 44% | 63% | 81% | 83% | 21% | 36% | 25% | 47% | 59% | 75% | 86% | 75% | 31% | 40% | 68% | 75% | 82% | 83% | 
3 | 422296 (antisense e[5mC]*e[5mC]*dG*dA*dG*dT*dT*d[5mC]*dT*dG*d[5mC]*dA*dG*dG*dA*eG*e[5mC]*eG*eG*e[5mC]) [compound 422296] | 21% | 39% | 67% | 78% | 82% | 27% | 62% | 40% | 56% | 56% | 82% | 84% | 74% | 47% | 44% | 70% | 78% | 80% | 82% | 
4 | 422130 (antisense eG*e[5mC]*e[5mC]*eT*eG*dA*dG*dG*d[5mC]*d[5mC]*dA*dG*d[5mC]*dA*dG*eA*eT*e[5mC]*eA*e[5mC]) [compound 422130] | 4% | 34% | 59% | 77% | 85% | 15% | 28% | 29% | 59% | 61% | 73% | 86% |  | 14% | 24% | 61% | 68% | 82% | 88% | % Inhibition of human Factor 7 mRNA levels (human Factor 7 mRNA [1]; gapmers targeted to nucleobases 14707 to 14732 of SEQ ID NO: 1 (Table 11)): 79%
5 | 422177 (antisense e[5mC]*e[5mC]*e[5mC]*dG*d[5mC]*d[5mC]*dG*dG*d[5mC]*dT*d[5mC]*dT*dG*d[5mC]*dT*d[5mC]*dA*eT*e[5mC]*e[5mC]) [compound 422177] | 12% | 44% | 64% | 81% | 88% | 24% | 3% | 10% | 29% | 21% | 31% | 63% |  |  |  |  |  |  |  | % Inhibition of human Factor 7 mRNA levels (human Factor 7 mRNA [1]; gapmers targeted to nucleobases 13760 to 13789 of SEQ ID NO: 1 (Table 10)): 74%
